Source: patent US9108930B2, “N1- and N2-carbamoyl-1,2,3-triazole serine hydrolase inhibitors and methods” (The Scripps Research Institute, priority 2011, dated 2015)
pIC50: −log10 of the molar value.

Legend:
[1] = tested on: serine hydrolases in mouse brain proteome; assay: Selectivity profile by competitive ABPP (mouse brain proteome), DAGL series; type: biochemical
[2] = tested on: peritoneal macrophages; assay: Metabolomics of thioglycolate-elicited peritoneal macrophages from treated mice; type: in vivo, mouse; details: 5 mg/kg, 4 hours, i.p.
Description: Mice were treated with KT109, KT172 or KT195 (5 mg/kg, 4 hours, i.p.) to evaluate whether blockade of DAGLB in peritoneal macrophages would result in metabolic effects similar to those observed in Neuro2A cells. Thioglycolate-elicited peritoneal macrophages were harvested, and the cells were subjected to metabolomics studies. […] All the metabolic effects observed in pharmacological studies were recapitulated using Daglb^−/− mice, providing genetic evidence that the changes were indeed DAGLB-mediated.
Metabolites were quantified by either selected reaction monitoring (SRM) of each metabolite using an Agilent G6410B Triple-Quad instrument or untargeted metabolomic analysis (substrate assays) using an Agilent 1100 series LC-MSD SL instrument. […] For analysis of diacylglycerols (DAGs) a Luna C5 column (50 mm×4.60 mm with 5 μm diameter particles) from Phenomenex was used. Mobile phase A was made of 95:5 v/v H2O:MeOH, and mobile phase B was composed of 60:35:5 v/v/v i-PrOH:MeOH:H2O. Ammonium hydroxide (0.1%) and formic acid (0.1%) was included to assist in ion formation in negative and positive ionization modes, respectively. For analysis of DAGs, 5 mM ammonium formate was also used in addition to 0.1% formic acid to assist in positive ionization and NH4+ adduct formation. For metabolite measurements, cells were resuspended in 1 mL of a 1% NaCl solution and added to 3 mL of a 2:1 v/v CHCl3:MeOH doped with 1 nmol of the following internal standards: d5-2-arachidonoylglycerol (2-AG), d8-arachidonic acid (AA), and d8-1-stearoyl-2-arachidonoylglycerol (SAG). The mixture was vortexed and then centrifuged (1,400×g, 3 min). The organic layer was removed, CHCl3 was added until the final volume was again 4 ml, and the extraction was repeated. The combined organic extracts were dried under a stream of N2 and resolubilized in 2:1 v/v CHCl3:MeOH (120 μl). 30 μL of resolubilized lipids were injected for positive mode (MAGs and DAGs) and negative mode (free fatty acids and eicosanoids) measurements.
The following parameters (MS) were used to measure the indicated metabolites by SRM (precursor ion, product ion, collision energy in V, polarity): C20:4 MAG or 2-AG (379, 287, 8, positive), d5-2-AG (384, 287, 5, positive), C18:0/C20:4 DAG or SAG (662, 341, 15, positive), d8-SAG (671, 671, 0, positive), C18:1/C20:4 DAG (660, 341, 15, positive), C16:0/C20:4 DAG (634, 341, 15, positive), C14:0/C20:4 DAG (606, 341, 15, positive), arachidonic acid or AA (303, 303, 0, negative), d8-AA (311, 267, 5, negative), PGE2 (351, 271, 10, negative), and PGD2 (351, 271, 10, negative). MS analysis was performed with an electrospray ionization source with the following parameters: drying gas temperature=350° C., drying gas flow rate=11 L/min, and the nebulizer pressure=35 psi. Prostaglandin SRM parameters were based on previously reported methods and transitions. Metabolites targeted by SRM were quantified by measuring the area under the peak in comparison with the internal standards. For metabolites where isotopic internal standards were not used, external standard curves with the internal standard versus metabolite standard were generated. In DAGL substrate assays, formation of the hydrolysis product, 2-AG was followed by measuring the area under the peak for 2-AG in comparison to the 1-monopentadecanoin standard ion.

[3] = molecular target: T1, DAGLB (Mus musculus, UniProt Q91WC9); assay: Gel-based ABPP assay against recombinant DAGLB (HEK293T-DAGLB lysates); type: biochemical; set-up: Full-length cDNAs encoding serine hydrolases were purchased from Open Biosystems; V5; host or cells: HEK293T; details: recombinant
T1 sequence (Q91WC9 1-669): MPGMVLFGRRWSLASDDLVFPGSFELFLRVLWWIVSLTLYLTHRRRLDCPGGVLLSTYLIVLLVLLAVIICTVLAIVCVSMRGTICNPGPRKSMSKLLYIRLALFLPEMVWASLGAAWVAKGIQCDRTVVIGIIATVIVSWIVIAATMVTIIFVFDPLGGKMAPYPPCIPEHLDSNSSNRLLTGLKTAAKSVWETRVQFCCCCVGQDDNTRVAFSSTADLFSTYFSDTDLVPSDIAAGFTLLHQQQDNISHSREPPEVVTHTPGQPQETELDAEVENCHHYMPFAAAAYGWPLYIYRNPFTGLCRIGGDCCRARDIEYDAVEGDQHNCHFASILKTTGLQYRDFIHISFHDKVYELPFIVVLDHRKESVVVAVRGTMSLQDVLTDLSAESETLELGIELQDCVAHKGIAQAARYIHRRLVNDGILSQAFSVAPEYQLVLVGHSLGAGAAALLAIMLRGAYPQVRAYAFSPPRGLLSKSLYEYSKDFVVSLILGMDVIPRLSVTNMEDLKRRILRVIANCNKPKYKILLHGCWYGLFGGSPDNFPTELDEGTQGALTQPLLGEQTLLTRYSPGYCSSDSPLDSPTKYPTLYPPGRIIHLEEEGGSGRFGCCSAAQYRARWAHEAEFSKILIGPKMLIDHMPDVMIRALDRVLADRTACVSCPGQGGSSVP

[4] = tested on: peritoneal macrophages of Pla2g4a-/- mice; assay: LPS-stimulated TNF-alpha release, macrophages from treated Pla2g4a-/- mice; type: in vivo, mouse; details: 5 mg/kg, 4 hours, i.p.
Description: Next, the cytokine profiles from a Pla2g4a^+/+ background were compared with the profiles from Pla2g4a^−/− mice treated with KT109 or KT195 (5 mg/kg, 4 hours, i.p.). […] However, no significant differences in LPS-stimulated TNF-alpha levels were observed from Pla2g4a^+/+ versus […].

[5] = molecular target: T1, DAGLB; assay: In situ inhibition in Neuro2A cells, competitive ABPP with HT-01; type: cell-based; set-up: from tissue; host or cells: thioglycolate-elicited peritoneal macrophages of treated mice; details: 4 hours
Description: For gel-based competitive ABPP studies, proteomes from cells treated in situ with inhibitor for 4 h at 37° C. at the indicated concentrations (n=3) were labeled with HT-01 (1 μM) for 30 min at 37° C. After quenching, SDS-PAGE, and in-gel visualization, the percentage of enzyme activity remaining was determined by measuring the integrated optical intensity of the bands using IMAGER® software. For LC-MS substrate assays, the percentage of enzyme activity remaining was determined by comparing the specific activity (amount of 2-AG formed per min per mg of proteome) of inhibitor with DMSO-treated samples. The IC50 values were determined from a dose-response curve generated using GraphPad PRISM® software.

## O=C(N1CCCCC1Cc1ccccc1)n1cc(-c2ccc(-c3ccccc3)cc2)nn1 (stereo not shown) [KT109]
[1]
  off-target activity / selectivity against other serine hydrolases: improved selectivity against FAAH, MGLL, and ABHD11
[2]
  change in 2-AG: Dramatic decreases in 2-AG
  change in SAG: significant increases in SAG
  change in cellular AA, PGE2 and PGD2: significant decreases in cellular AA levels and a corresponding reduction in PGE2 and PGD2
[3]
  activity against DAGLB: maintaining comparable potencies against DAGLB
[4]
  increase of TNF-alpha levels upon LPS stimulation: 2 fold
[5]
  pIC50: 7.85

## COc1ccc(-c2ccc(-c3cn(C(=O)N4CCCCC4c4ccccc4)nn3)cc2)cc1 (stereo not shown) [KT195]
[1]
  off-target activity / selectivity against other serine hydrolases: completely inactivated ABHD6
[2]
  change in 2-AG: no observable changes
  change in cellular AA, PGE2 and PGD2: None of these effects were observed
[3]
  activity against DAGLB: negligible activity against DAGLB at micromolar concentrations
[4]
  effect on TNF-alpha levels upon LPS stimulation: no observable effects
[5]
  activity against DAGLB in Neuro2A cells: negligible activity against DAGLB
